# Data taken from patent US6933320B2, “Combination comprising combretastatin and anticancer agents” (priority 2001, dated 2005).
# Values joined by “and” are separate entries in the source; they are usually repeats but may differ in a detail not shown here. Identical values can stand only once. Like-named read-outs stand apart in the source and are kept apart here.
# Assays:
# MA13/C = type: in vivo
# Description: This efficacy may be quantified, for example by the log10 cell kill, which is determined by the following formula: log10 cells killed=T-C(days)/3.32×Td in which T-C represents the time taken for the cells to grow, which is the mean time in days for the tumors of the treated group (T) to reach a predetermined value (1 g for example) and the tumors of the control group (C) to reach the same value, and Td represents the time in days needed for the volume of the tumors in the control group to double. (T. H. Corbett et al., Cancer, 40, 2660.2680 (1977); F. M. Schabel et al., Cancer Drug Development, Part B, Methods in Cancer Research, 17, 3-51, New York, Academic Press Inc. (1979)). A product is considered to be active if the log10 cell kill is greater than or equal to 0.7. A product is considered to be very active if the log10 cell kill is greater than 2.8.
# (§1) The efficacy of the combinations on solid tumors were determined experimentally in the following manner:
# (§2) The animals subjected to the experiment, generally mice, were subcutaneously grafted bilaterally with 30 to 60 mg of a tumor fragment on day 0. The animals bearing tumors were mixed before being subjected to the various treatments and controls. In the case of treatment of advanced tumors, tumors were allowed to develop to the desired size, and animals having insufficiently developed tumors were eliminated. The selected animals were distributed at random to undergo the treatments and controls. Animals not bearing tumors were also subjected to the same treatments as the tumor-bearing animals in order to be able to dissociate the toxic effect from the specific effect on the tumor. Chemotherapy generally began from 3 to 22 days after grafting, depending on the type of tumor, and the animals were observed every day. The different animal groups were weighed 3 or 4 times a week until the maximum weight loss was attained, and the groups were then weighed at least once a week until the end of the trial.
# (§3) The tumors were measured 2 or 3 times a week until the tumor reached approximately 2 g, or until the animal died if this occurred before the tumor reached 2 g. The animals were autopsied when sacrificed.
# (§4) The antitumor activity was determined in accordance with different parameters which were recorded such as dose (mg/kg), mode of administration, time of administration, cytotoxicity, toxicity and log cell kill.
# In this and the following examples, RPR 258062A corresponds to the hydrochloride salt of compound IIa. The agents were administered intravenously unless otherwise specified.
# C51 = test: In vivo evaluation on subcutaneously grafted solid tumor C51
# Description: A product is considered to be active if the log10 cell kill is greater than or equal to 0.7. A product is considered to be very active if the log10 cell kill is greater than 2.8.
# as §1
# as §2, with “Animals not bearing tumors were also subjected to the same treatments as the tumor-bearing animals in order to be able to dissociate the toxic effect from the specific effect on the tumor. Chemotherapy generally began from 3 to 22 days after grafting, depending on the type of tumor, and the animals were observed every day.” left out
# as §3, §4
# The agents were administered intravenously unless otherwise specified.
# [1] = Solubility in water (statement); type: physicochemical; conditions: statement in words, no method given
# [2] = MA13/C tumor, single agent at HNTD, i.v., docetaxel days 17, 24 (* evaluated on mice that developed tumor), RPR 258062A days 17, 24 (2x/d)
# [3] = MA13/C tumor, single agent at HNTD, i.v., docetaxel days 17, 24, RPR 258062A days 17, 24 (2x/d)
# [4] = sequential combination RPR 258062A 58 mg/kg day 14 + CDDP 10 mg/kg days 15, 19, i.v.
# [5] = simultaneous combination RPR 258062A 1st 116 mg/kg days 12, 16 + CDDP 10 mg/kg days 12, 16, i.v.
# [6] = single agent at HNTD, RPR 258062A i.v. days 13-17 (2x/d), CPT-11 oral days 14-17
# [7] = single agent at HNTD, i.v., schedule days 12, 16
# [8] = MA13/C tumor, sequential combination RPR 258062A 1st 75 mg/kg day 14 + vinorelbine 2nd 32 mg/kg days 15, 25, i.v.
# [9] = MA13/C tumor, single agent at HNTD, i.v., schedule days 15, 22 (doxorubicin study)
# [10] = MA13/C tumor, single agent at HNTD, i.v., schedule days 15, 25 (vinorelbine study)
# [11] = sequential combination CPT-11 oral 400 mg/kg days 13-16 + RPR 258062A 36 mg/kg day 17
smiles,measurement,setting,value
"CC(=O)O[C@@]12CO[C@@H]1C[C@H](O)[C@@]1(C)C(=O)[C@H](O)C3=C(C)[C@@H](OC(=O)[C@H](O)[C@@H](NC(=O)OC(C)(C)C)c4ccccc4)C[C@@](O)([C@@H](OC(=O)c4ccccc4)[C@H]21)C3(C)C [Docetaxel, docetaxel, reference compound]",LcK (log cell kill),MA13/C; [2],3.2*
same,RR CR (complete response),MA13/C; [3],4/6
same,RR PR (partial response),MA13/C; [3],6/6
same,T-C (tumor growth delay),MA13/C; [3],26.7 days
same,TFS (tumor free survivors),MA13/C; [3],3/6
same,HNTD Dose (highest nontoxic dose),"MA13/C; mouse, in vivo, iv",68 mg/kg
COc1ccc(/C=C\c2cc(OC)c(OC)c(OC)c2)cc1NC(=O)C(N)CO (centres unmarked) [RPR 258062A],HNTD Dose (highest nontoxic dose),"C51; sequential combination CPT-11 oral (days 13-16) + RPR 258062A i.v. (day 17), dose of each constituent",36 mg/kg
same,LcK (log cell kill),C51; [4],5.9
same,RR CR (complete response),C51; [4],5/5
same,RR PR (partial response),C51; [4],5/5
same,T-C (tumor growth delay),C51; [4],51 days
same,TFS (tumor free survivors),C51; [4],0/5
same,HNTD Dose (highest nontoxic dose),"C51; sequential combination RPR 258062A (day 14) + CDDP (days 15, 19), i.v., dose of each constituent",58 mg/kg
same,RR CR (complete response),C51; [5],6/6
same,RR PR (partial response),C51; [5],6/6
same,TFS (tumor free survivors),C51; [5],6/6
same,HNTD Dose (highest nontoxic dose),"C51; simultaneous combination RPR 258062A 1st (days 12, 16) + CDDP (days 12, 16), i.v., dose of each constituent",116 mg/kg
same,LcK (log cell kill),C51; [6],1.3
same,RR CR (complete response),C51; [6],0/5
same,RR PR (partial response),C51; [6],5/5
same,T-C (tumor growth delay),C51; [6],10.3 days
same,TFS (tumor free survivors),C51; [6],0/5
same,LcK (log cell kill),C51; [7],1.2
same,RR CR (complete response),C51; [7],0/6
same,RR PR (partial response),C51; [7],6/6
same,T-C (tumor growth delay),C51; [7],10 days
same,TFS (tumor free survivors),C51; [7],0/6
same,HNTD Dose (highest nontoxic dose),"C51; single agent, RPR 258062A i.v. days 13-17 (2x/d), CPT-11 oral days 14-17",116.5 mg/kg
same,HNTD Dose (highest nontoxic dose),"C51; single agent, i.v., schedule days 12, 16",116 mg/kg
same,RR CR (complete response),"MA13/C; MA13/C tumor, sequential combination RPR 258062A 150 mg/kg days 16, 23 (2x/d) + docetaxel 109.6 mg/kg days 17, 24, i.v.",6/6
same,RR CR (complete response),MA13/C; [8],5/5
same,RR PR (partial response),MA13/C; [8],5/5
same,T-C (tumor growth delay),MA13/C; [8],84.7 days
same,HNTD Dose (highest nontoxic dose),"MA13/C; MA13/C tumor, sequential combination RPR 258062A 1st (day 14) + vinorelbine 2nd (days 15, 25), i.v., dose of each constituent",75 mg/kg
same,HNTD Dose (highest nontoxic dose),"MA13/C; MA13/C tumor, sequential combination RPR 258062A (days 15, 21) + doxorubicin (days 16, 22), i.v., dose of each constituent",139.6 mg/kg
same,HNTD Dose (highest nontoxic dose),"MA13/C; MA13/C tumor, sequential combination RPR 258062A (days 16, 23, 2x/d) + docetaxel (days 17, 24), i.v., dose of each constituent",150 mg/kg
same,LcK (log cell kill),MA13/C; [9],1.3
same,RR CR (complete response),MA13/C; [9],0/6
same,RR PR (partial response),MA13/C; [9],0/6
same,T-C (tumor growth delay),MA13/C; [9],30.2 days
same,TFS (tumor free survivors),MA13/C; [9],0/6
same,LcK (log cell kill),MA13/C; [10],0.5
same,RR CR (complete response),MA13/C; [10],0/5
same,RR PR (partial response),MA13/C; [10],0/5
same,T-C (tumor growth delay),MA13/C; [10],5 days
same,TFS (tumor free survivors),MA13/C; [10],0/5
same,LcK (log cell kill),MA13/C; [2],1.3
same,RR CR (complete response),MA13/C; [3],1/6
same,RR PR (partial response),MA13/C; [3],1/6
same,T-C (tumor growth delay),MA13/C; [3],10.8 days
same,TFS (tumor free survivors),MA13/C; [3],0/6
same,HNTD Dose (highest nontoxic dose),"MA13/C; MA13/C tumor, single agent, i.v., schedule days 15, 22 (doxorubicin study)",186.0 mg/kg
same,HNTD Dose (highest nontoxic dose),"MA13/C; MA13/C tumor, single agent, i.v., schedule days 15, 25 (vinorelbine study)",150 mg/kg
same,HNTD Dose (highest nontoxic dose),"MA13/C; MA13/C tumor, single agent, i.v., docetaxel days 17, 24, RPR 258062A days 17, 24 (2x/d)",242 mg/kg
same,RR CR (complete response),"MA13/C; mouse, in vivo",7/7
same,RR PR (partial response),"MA13/C; mouse, in vivo",6/6 and 7/7
same,T-C (tumor growth delay),"MA13/C; mouse, in vivo",74.8 days and 80.6 days
same,TFS (tumor free survivors),"MA13/C; mouse, in vivo",2/5 and 4/6 and 2/7
"N.N.[Cl][Pt][Cl] [CDDP, cisplatinum, reference compound]",LcK (log cell kill),C51; [7],1.9
same,RR CR (complete response),C51; [7],0/6
same,RR PR (partial response),C51; [7],5/6
same,T-C (tumor growth delay),C51; [7],16.5 days
same,TFS (tumor free survivors),C51; [7],0/6
"CCc1c2c(nc3ccc(OC(=O)N4CCC(N5CCCCC5)CC4)cc13)-c1cc3c(c(=O)n1C2)COC(=O)[C@]3(O)CC [CPT-11, reference compound]",LcK (log cell kill),C51; [11],1.9
same,RR CR (complete response),C51; [11],3/5
same,RR PR (partial response),C51; [11],5/5
same,T-C (tumor growth delay),C51; [11],15.1 days
same,TFS (tumor free survivors),C51; [11],0/5
same,LcK (log cell kill),C51; [6],1.1
same,RR CR (complete response),C51; [6],0/5
same,RR PR (partial response),C51; [6],0/5
same,T-C (tumor growth delay),C51; [6],8.7 days
same,TFS (tumor free survivors),C51; [6],0/5
COc1ccc(/C=C\c2cc(OC)c(OC)c(OC)c2)cc1NC(=O)C(N)CO (centres unmarked) [IIa],Solubility in water,[1],soluble in water
"CCC1=C[C@@H]2CN(C1)Cc1c([nH]c3ccccc13)[C@@](C(=O)OC)(c1cc3c(cc1OC)N(C)[C@H]1[C@@](O)(C(=O)OC)[C@H](OC(C)=O)[C@]4(CC)C=CCN5CC[C@]31[C@@H]54)C2 [Vinorelbine, vinorelbine, reference compound]",LcK (log cell kill),MA13/C; [10],4.6
same,RR CR (complete response),MA13/C; [10],5/5
same,RR PR (partial response),MA13/C; [10],5/5
same,T-C (tumor growth delay),MA13/C; [10],45.5 days
same,TFS (tumor free survivors),MA13/C; [10],0/5
same,HNTD Dose (highest nontoxic dose),"MA13/C; mouse, in vivo, iv",19.8 mg/kg
"COc1cccc2c1C(=O)c1c(O)c3c(c(O)c1C2=O)C[C@@](O)(C(=O)CO)C[C@@H]3O[C@H]1C[C@H](N)[C@H](O)[C@H](C)O1 [Doxorubicin, doxorubicin, reference compound]",LcK (log cell kill),MA13/C; [9],4.5
same,RR CR (complete response),MA13/C; [9],4/6
same,RR PR (partial response),MA13/C; [9],4/6
same,T-C (tumor growth delay),MA13/C; [9],53.5 days
same,TFS (tumor free survivors),MA13/C; [9],0/6
same,HNTD Dose (highest nontoxic dose),"MA13/C; mouse, in vivo, iv",17.4 mg/kg
